Data reported in patent US11591306B2, “Vitamin E-based amphipathic compound, and use thereof” (Industry-University Cooperation Foundation Hanyang …, priority 2017, dated 2023).

How the values were obtained:
[1] = Hydrodynamic radius of micelles by dynamic light scattering (DLS); type: physicochemical; settings: at 1.0 wt %
Description: A method of measuring the radius of a micelle is not particularly limited, but may be a method well known in the art, for example, dynamic light scattering (DLS).
To identify the properties of VEGs synthesized according to the synthetic methods of Preparation Examples 1 to […] molecular weights (M.W.) and critical micellar concentrations (CMCs) of VEGs, and the hydrodynamic radii (Rh) of formed micelles were measured.
Specifically, the CMCs were measured using hydrophobic fluorescence staining and diphenylhexatriene (DPH), and the hydrodynamic radii (Rh) of the micelles formed by each formulation were measured by dynamic light scattering (DLS).

[2] = biological target: T1, MelBSt (melibiose permease) (Salmonella typhimurium, UniProt P30878); assay: MelBSt extraction/solubilization and thermal stability, SDS-PAGE and Western blotting
T1 construct: made in house; host or cells: E. coli DW2 (ΔmelB and ΔlacZY), plasmid pK95ΔAHB/WT MelBSt/CH10
T1 sequence (P30878 whole entry): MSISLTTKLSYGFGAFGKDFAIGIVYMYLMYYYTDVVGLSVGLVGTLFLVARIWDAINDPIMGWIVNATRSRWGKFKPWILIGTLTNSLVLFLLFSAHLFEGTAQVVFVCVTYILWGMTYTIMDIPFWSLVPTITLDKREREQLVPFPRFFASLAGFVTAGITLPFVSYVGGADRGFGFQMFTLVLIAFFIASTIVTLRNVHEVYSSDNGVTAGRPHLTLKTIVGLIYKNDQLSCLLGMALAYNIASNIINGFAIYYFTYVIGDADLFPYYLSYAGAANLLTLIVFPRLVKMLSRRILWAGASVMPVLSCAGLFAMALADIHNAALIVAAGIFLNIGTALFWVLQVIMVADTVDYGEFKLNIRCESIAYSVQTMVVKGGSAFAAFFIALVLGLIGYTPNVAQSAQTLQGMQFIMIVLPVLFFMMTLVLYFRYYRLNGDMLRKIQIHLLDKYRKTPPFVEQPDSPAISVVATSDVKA
Description: Specifically, Salmonella typhimurium MelBSt (melibiose permease) having a 10 His tag at the C-terminus was expressed in E. coli DW2 cells (ΔmelB and ΔlacZY) using a pK95ΔAHB/WT MelBSt/CH10 plasmid. Cell growth and membrane preparation were carried out according to the methods disclosed in the paper written by A. S. Ethayathulla et al. (Nat. Commun. 2014, 5, 3009). A protein assay was performed using a Micro BCA kit (Thermo Scientific, Rockford, Ill.). MelBSt stability in VEGs or DDM was evaluated using the protocol disclosed in Nat. Methods 2010, 7, 1003-1008, written by P. S. Chae et al. A MelBSt-containing membrane sample (the final protein concentration was 10 mg/mL) was incubated in a solubilization buffer containing 1.5% (w/v) DDM or VEGs (50 mM sodium phosphate, pH 7.5, 200 mM NaCl, 10% glycerol, 20 mM melibiose) at two different temperatures (0 and 23° C.) for 90 minutes. To remove an insoluble material, ultracentrifugation was performed using a Beckman Optima™ MAX ultracentrifuge equipped with a TLA-100 rotor at 355,590 g and 4° C. for 30 minutes. […] The loaded samples were analyzed by SDS-15% PAGE, and then visualized by immunoblotting with a Penta-His-HRP antibody (Qiagen, Germantown, Md.).
To assess the thermal stability of MelBSt in various amphipathic molecules, MelBSt extracted with individual amphipathic molecules at 23° C. was subjected to additional thermal treatment at three different temperature (45, 55 and 65° C.) and ultracentrifugation, followed by SDS-15% PAGE and Western blotting. MelBSt was detected using a SuperSignalWest Pico chemiluminescent substrate by an ImageQuant LAS 4000 Biomolecular Imager (GE Healthcare Life Science).

β2AR = biological target: T2, β2AR (Homo sapiens, UniProt P07550); assay: β2AR stability, [3H]-dihydroalprenolol (DHA) ligand binding; settings: CMC+0.2 wt %, 10 days at room temperature
T2 construct: made in house; host or cells: Sf9 insect cells, baculovirus
T2 sequence (P07550 whole entry): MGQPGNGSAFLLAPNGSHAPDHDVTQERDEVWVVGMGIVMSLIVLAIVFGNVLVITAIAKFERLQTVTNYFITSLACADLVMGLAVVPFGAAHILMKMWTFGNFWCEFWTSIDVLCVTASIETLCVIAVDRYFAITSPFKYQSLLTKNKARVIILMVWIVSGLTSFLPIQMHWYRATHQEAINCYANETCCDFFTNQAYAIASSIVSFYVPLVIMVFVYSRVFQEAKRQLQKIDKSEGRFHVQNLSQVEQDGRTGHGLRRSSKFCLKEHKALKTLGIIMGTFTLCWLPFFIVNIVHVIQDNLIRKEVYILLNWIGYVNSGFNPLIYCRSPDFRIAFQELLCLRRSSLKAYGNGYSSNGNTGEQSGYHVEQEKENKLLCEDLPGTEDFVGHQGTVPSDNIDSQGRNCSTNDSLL
Description: A receptor was expressed in Sf9 insect cells infected with Baculovirus and solubilized in 1% DDM. The DDM-solubilized receptor was purified by alprenolol-sepharose in the presence of 0.01% cholesteryl succinate (CHS). β2AR purified by DDM was diluted with a buffer containing DDM or VEGs (VEG-1, VEG-2, VEG-3 and VEG-5) to reach the final concentration of CMC+0.2 wt %. β2AR solubilized in each compound was stored for 10 days at room temperature, and the ligand binding ability of the receptor was measured at regular intervals by incubating the receptor with 10 nM radioactive [^3H]-dihydroalprenolol (DHA) for 30 minutes at room temperature. The mixture was loaded into a G-50 column, and a supernatant was collected using a certain amount of binding buffer (supplemented with […] pH 7.5, 100 mM NaCl, 0.5 mg/ml BSA). In addition, a 15 ml scintillation fluid was added. Receptor-binding [^3H]-DHA was measured using a scintillation counter (Beckman).

β2AR-Gs complex = biological target: T3, β2AR-Gs complex (Homo sapiens, UniProt P07550); assay: β2AR-Gs complex stability by analytical gel filtration (SEC); settings: complex purified in VEG-3, 3 and 15-day incubation, compound-free running buffer
T3 construct: made in house
T3 sequence (P07550 whole entry): as above
T3 sequence (P63092 whole entry partner): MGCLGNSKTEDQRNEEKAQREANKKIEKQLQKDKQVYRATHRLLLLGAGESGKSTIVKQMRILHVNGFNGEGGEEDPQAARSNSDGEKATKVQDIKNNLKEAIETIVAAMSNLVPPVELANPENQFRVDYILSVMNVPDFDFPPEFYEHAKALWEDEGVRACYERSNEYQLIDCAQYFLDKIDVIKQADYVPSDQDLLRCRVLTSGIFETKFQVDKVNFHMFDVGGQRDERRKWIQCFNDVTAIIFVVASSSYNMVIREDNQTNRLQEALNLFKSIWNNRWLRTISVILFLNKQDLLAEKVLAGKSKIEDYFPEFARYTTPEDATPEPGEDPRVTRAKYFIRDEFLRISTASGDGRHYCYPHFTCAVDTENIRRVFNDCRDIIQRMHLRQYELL
T3 sequence (P62873 whole entry partner): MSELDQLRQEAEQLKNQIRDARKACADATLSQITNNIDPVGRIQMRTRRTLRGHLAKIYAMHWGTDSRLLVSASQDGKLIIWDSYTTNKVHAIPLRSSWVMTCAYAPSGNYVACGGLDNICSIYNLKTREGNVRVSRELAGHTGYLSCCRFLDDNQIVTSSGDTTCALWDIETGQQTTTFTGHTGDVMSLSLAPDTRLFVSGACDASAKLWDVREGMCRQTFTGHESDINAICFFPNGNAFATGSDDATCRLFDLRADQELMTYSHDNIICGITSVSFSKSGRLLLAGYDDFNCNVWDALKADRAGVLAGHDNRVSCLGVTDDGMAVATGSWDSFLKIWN
T3 sequence (P59768 2-68 partner limits assumed): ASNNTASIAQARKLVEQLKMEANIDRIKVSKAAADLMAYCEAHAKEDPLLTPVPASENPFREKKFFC
Description: 100 μM β2AR solubilized in 0.1% DDM mixed with 120 μM Gs heterotrimer for 30 minutes at room temperature. 0.5-unit apyrase (NEB) and 2 mM MgCl2 were added to facilitate complex formation, followed by further incubation for one hour. Subsequently, 1.0% VEG-3 was added such that the final concentration reached 0.2%, and the sample was further incubated for 30 minutes to change DDM to VEG-3. The protein solution was loaded into a M1 Flag column, washed with a series of buffers with different molar ratios of 0.1% DDM buffer to 0.5% VEG-3 buffer to completely change DDM to VEG-3, and the receptor-Gs complex was finally eluted with a 0.05% VEG-3 buffer. Preparative gel filtration was performed to purify the β2AR-Gs complex with a running buffer (20 mM HEPES pH 7.5, 100 mM NaCl, 0.005% DTM-A6, 1 mM BI, […]). To measure the stability of the β2AR-Gs complex in VEG-3, analytical gel filtrations were performed using the running buffer as above, but after 3 and 15-day incubation, performed without VEG-3 (compound-free condition).

UapA = UapA (Emericella nidulans, UniProt Q07307, G411V); assay: UapA thermal stability, CPM assay; parameters: made in house; host or cells: Saccharomyces cerevisiae FGY217 membranes; settings: CMC+0.2 wt %, 40° C. for 120 minutes
UapA, sequence (Q07307 12-574 G411V): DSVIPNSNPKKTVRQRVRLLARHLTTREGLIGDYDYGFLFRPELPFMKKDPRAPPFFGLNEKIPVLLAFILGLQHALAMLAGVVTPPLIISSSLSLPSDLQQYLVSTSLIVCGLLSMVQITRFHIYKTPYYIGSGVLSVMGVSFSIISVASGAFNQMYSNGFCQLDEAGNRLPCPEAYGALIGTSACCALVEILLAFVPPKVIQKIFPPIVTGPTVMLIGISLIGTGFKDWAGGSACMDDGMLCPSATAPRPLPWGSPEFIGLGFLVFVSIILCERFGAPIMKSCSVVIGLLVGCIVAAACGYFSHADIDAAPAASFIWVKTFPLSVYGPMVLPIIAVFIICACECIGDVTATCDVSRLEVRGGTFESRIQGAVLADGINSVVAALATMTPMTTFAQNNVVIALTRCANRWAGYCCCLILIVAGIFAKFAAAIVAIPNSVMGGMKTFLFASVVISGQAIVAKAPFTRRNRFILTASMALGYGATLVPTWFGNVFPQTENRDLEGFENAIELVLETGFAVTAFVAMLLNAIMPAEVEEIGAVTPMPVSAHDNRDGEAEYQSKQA
Description: UapAG411VΔ1-11 (hereinafter, referred to as “UapA”) was expressed in a Saccharomyces cerevisiae FGY217 strain by GFP fusion, and isolated into a sample buffer (20 mM Tris (pH 7.5), 150 mM NaCl, 0.03% DDM, 1 mM xanthine), which was performed according to the method disclosed in the paper written by J. Leung et al. (Mol. Menthr. Biol. 2013, 30, 32-42). The protein was concentrated to be approximately 10 mg/ml using a 100 kDa molecular weight cutoff filter (Millipore). The protein was diluted 1:150 with a buffer containing DDM, VEG (VEG-1, VEG-2, VEG-3, VEG-4 or VEG-5) or LMNG at CMC+0.2 wt % in Greiner 96. CPM dye (Invitrogen) stored in DMSO (Sigma) was diluted with a dye buffer (20 mM Tris (pH 7.5), 150 mM NaCl, 0.03% DDM, 5 mM EDTA), and 3 μL of the diluted dye was added to an individual protein sample. The reaction mixture was treated at a constant temperature of 40° C. for 120 minutes. A fluorescence emission intensity was monitored using a microplate spectrofluorometer set to excitation and emission wavelengths of 387 and 463 nm, respectively. The maximum fluorescence value was used to calculate the percentage of a protein folded during incubation. The relative amount of the folded protein was plotted over time using GraphPad Prism.

In the case of `Cc1c(C)c2c(c(C)c1OCC(=O)NC(CO[C@@H]1OC(CO)[C@@H](O[C@H]3OC(CO)[C@@H](O)[C@H](O)C3O)[C@H](O)C1O)CO[C@@H]1OC(CO)[C@@H](O[C@H]3OC(CO)[C@@H](O)[C@H](O)C3O)[C@H](O)C1O)CCC(C)(CCCC(C)CCCC(C)CCCC(C)C)O2` (stereo partly drawn) [VEG-3], the “Rh (nm), hydrodynamic radius of micelles” value [1] is reported as 4.8 ± 0.1 nm, the MelBSt solubilization ability ([2]; 1.5 wt %, extracted at 23° C., then 65° C.) is reported as “very excellent protein solubilization ability” and the “MelBSt transporter solubilization ability in the thermal stability experiment” value ([2]; elevated temperatures (overall)) is reported as “higher transporter solubilization ability than DDM”. The “Long-term β2AR activity ([3H]-DHA binding)” value (β2AR) was “consistently maintained during incubation for 10 days”, the “Integrity of the purified β2AR-Gs complex (SEC)” value (β2AR-Gs complex) was “continuously maintains its integrity as a complex for 15 days” and the “Ability to maintain UapA in a structurally stable state (CPM assay)” value (UapA) was “excellent ability to maintain UapA in a structurally stable state”.
